In patent publication US20160145257A1, “SUBSTITUTED XANTHINES AND METHODS OF USE THEREOF” (Hydra Biosciences, Inc., priority 2013, published 2016) one finds IC50 data, which are given here for 32 compounds.

Structures can show the parent of a compound that is named as a salt.

For the assay, the target named is T1, hTRPC5 (Homo sapiens, UniProt Q9UL62).
T1 construct: expressed in transfected cells; host or cells: HEK293 TREx cells with inducible TRPC5 expression
T1 sequence (Q9UL62 1-973): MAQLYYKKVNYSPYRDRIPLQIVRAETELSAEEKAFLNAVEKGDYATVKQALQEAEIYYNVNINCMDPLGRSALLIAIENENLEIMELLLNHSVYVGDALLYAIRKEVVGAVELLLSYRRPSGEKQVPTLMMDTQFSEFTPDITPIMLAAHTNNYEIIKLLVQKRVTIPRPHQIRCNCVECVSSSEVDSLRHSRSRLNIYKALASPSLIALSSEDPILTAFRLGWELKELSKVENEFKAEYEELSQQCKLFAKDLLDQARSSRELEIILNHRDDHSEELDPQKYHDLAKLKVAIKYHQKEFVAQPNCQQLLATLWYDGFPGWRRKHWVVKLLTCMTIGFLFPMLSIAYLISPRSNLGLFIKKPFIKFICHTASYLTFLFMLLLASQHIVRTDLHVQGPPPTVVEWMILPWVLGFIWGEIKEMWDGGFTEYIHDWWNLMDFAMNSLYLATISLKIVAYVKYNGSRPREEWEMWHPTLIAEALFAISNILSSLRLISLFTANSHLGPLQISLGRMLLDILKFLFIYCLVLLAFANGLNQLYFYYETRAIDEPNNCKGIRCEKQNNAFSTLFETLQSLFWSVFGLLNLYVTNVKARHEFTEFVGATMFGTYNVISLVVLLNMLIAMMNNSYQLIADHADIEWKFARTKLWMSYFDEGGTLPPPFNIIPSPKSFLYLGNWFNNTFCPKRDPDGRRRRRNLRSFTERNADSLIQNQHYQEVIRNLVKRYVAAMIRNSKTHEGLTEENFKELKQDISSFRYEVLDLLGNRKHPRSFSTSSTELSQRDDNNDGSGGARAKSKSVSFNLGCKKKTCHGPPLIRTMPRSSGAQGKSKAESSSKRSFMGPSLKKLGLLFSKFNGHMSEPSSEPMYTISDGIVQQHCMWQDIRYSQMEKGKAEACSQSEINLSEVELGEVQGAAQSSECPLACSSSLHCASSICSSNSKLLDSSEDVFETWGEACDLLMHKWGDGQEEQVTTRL
Nature of the assay: Whole-cell patch clamp, block of LaCl3-activated TRPC5 inward current. Type of assay: cell-based. As to conditions: TRPC5-expressing HEK293 TREx cells, 80 μM LaCl3, inward current, IC50 estimated from 5 μM and 500 nM, read-out: hTRPC5 Patch La3+ Inwd (nM) (All Batches). Put shortly:
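Whole-cell recordings in induced TRPC5-expressing HEK293 TREx cells, holding −40 mV, 400 ms ramps −120 to +100 mV every 5 s; current activated by 80 μM external LaCl3 and 1,400 nM pipette free Ca2+ (pH 7.2 internal, 7.4 external). Inward block at −80 mV, with LaCl3 present; IC50 estimated from testing at 5 μM and 500 nM.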
In the case of `CCOc1nc2c(c(=O)n(C)c(=O)n2C)n1Cc1cccc(Cl)c1` [Compound 154, 7-(3-Chlorobenzyl)-8-ethoxy-1,3-dimethyl-1H-purine-2,6(3H,7H)-dione], the IC50 was 2000 to 10000 nM.
Then `CCc1coc(CSc2nc3c(c(=O)n(C)c(=O)n3C)n2Cc2ccc(F)cc2)n1` [Compound 156, 8-((4-ethyloxazol-2-yl)methylthio)-7-(4-fluorobenzyl)-1,3-dimethyl-1H-purine-2,6(3H,7H)-dione], with 100 to 500 nM; and `CCc1coc(CSc2nc3c(c(=O)n(C)c(=O)n3C)n2Cc2ccc(Br)cc2)n1` [Compound 157, 7-(4-bromobenzyl)-8-((4-ethyloxazol-2-yl)methylthio)-1,3-dimethyl-1H-purine-2,6(3H,7H)-dione], with under 100 nM.
Then `CCCOCCc1nc2c(c(=O)n(C)c(=O)n2C)n1Cc1ccc(C(C)=O)cc1` [Compound 158], with 2000 to 10000 nM; and `CCCOCCc1nc2c(c(=O)n(C)c(=O)n2C)n1Cc1cccc(C(C)=O)c1` [Compound 159], with 2000 to 10000 nM; and `COc1cccc(Cn2c(Oc3cccc(OC(F)(F)F)c3)nc3c2c(=O)n(C)c(=O)n3C)c1` [Compound 160, 7-(3-methoxybenzyl)-1,3-dimethyl-8-(3-(trifluoromethoxy)phenoxy)-1H-purine-2,6(3H,7H)-dione], with 100 to 500 nM.
Take `CCCC(=O)c1cccc(Cc2nc3c(c(=O)n(C)c(=O)n3C)n2Cc2cccc(Br)c2)c1` [Compound 161, 7-(3-bromobenzyl)-8-(3-butyrylbenzyl)-1,3-dimethyl-1H-purine-2,6(3H,7H)-dione]: the IC50 was 2000 to 10000 nM.
Then `CNCc1cccc(Oc2nc3c(c(=O)n(C)c(=O)n3C)n2Cc2ccc(Cl)cc2)c1` [Compound 163, 7-(4-Chlorobenzyl)-1,3-dimethyl-8-(3-((methylaminol)methyl)phenoxy)-1H-purine-2,6(3H,7H)-dione hydrochloride], with 2000 to 10000 nM; and `CN(C)Cc1cccc(Oc2nc3c(c(=O)n(C)c(=O)n3C)n2Cc2ccc(Cl)cc2)c1` [Compound 164, 7-(4-Chlorobenzyl)-8-(3-((dimethylaminol)methyl)phenoxy)-1,3-dimethyl-1H-purine-2,6(3H,7H)-dione hydrochloride], with 2000 to 10000 nM.
Turning to `CCC(CO)NC(=O)C(C)Cc1nc2c(c(=O)n(C)c(=O)n2C)n1Cc1cccc(Br)c1` (centres unmarked) [Compound 165], the IC50 is 2000 to 10000 nM.
Then `Cn1c(=O)c2c(nc(Oc3cccc(OC(F)(F)F)c3)n2Cc2cccc(OC(F)(F)F)c2)n(C)c1=O` [Compound 166, 1,3-dimethyl-7-(3-(trifluoromethoxy)benzyl)-8-(3-(trifluoromethoxy)phenoxy)-1H-purine-2,6(3H,7H)-dione], with 100 to 500 nM; and `Cc1cccc(Cn2c(Oc3cccc(OC(F)(F)F)c3)nc3c2c(=O)n(C)c(=O)n3C)c1` [Compound 167, 1,3-dimethyl-7-(3-methylbenzyl)-8-(3-(trifluoromethoxy)phenoxy)-1H-purine-2,6(3H,7H)-dione], with under 100 nM; and `Cn1c(=O)c2c(nc(Oc3cccc(OC(F)(F)F)c3)n2Cc2cccc(Cl)c2)n(C)c1=O` [Compound 168, 7-(3-chlorobenzyl)-1,3-dimethyl-8-(3-(trifluoromethoxy)phenoxy)-1H-purine-2,6(3H,7H)-dione], with 100 to 500 nM.
Then `CCc1coc(CSc2nc3c(c(=O)n(C)c(=O)n3C)n2Cc2ccc(C#N)cc2)n1` [Compound 169, 4-((8-((4-ethyloxazol-2-yl)methylthio)-1,3-dimethyl-2,6-dioxo-2,3-dihydro-1H-purin-7(6H)-yl)methyl)benzonitrile], with 1000 to 2000 nM; and `CCc1coc(CSc2nc3c(c(=O)n(C)c(=O)n3C)n2Cc2cccc(C#N)c2)n1` [Compound 170, 3-((8-((4-ethyloxazol-2-yl)methylthio)-1,3-dimethyl-2,6-dioxo-2,3-dihydro-1H-purin-7(6H)-yl)methyl)benzonitrile], with 2000 to 10000 nM; and `COc1cccc(Cn2c(Oc3ccc(-c4ccccc4)nc3)nc3c2c(=O)n(C)c(=O)n3C)c1` [Compound 171], with 2000 to 10000 nM.
Then `Cn1c(=O)c2c(nc(Nc3cccc(C(F)(F)F)c3)n2Cc2cccc(Br)c2)n(C)c1=O` [Compound 172], with 2000 to 10000 nM.
Consider `CCCC(O)c1cccc(Oc2nc3c(c(=O)n(C)c(=O)n3C)n2Cc2cccc(Br)c2)c1` (centres unmarked) [Compound 173, 7-(3-bromobenzyl)-8-(3-(1-hydroxybutyl)phenoxy)-1,3-dimethyl-1H-purine-2,6(3H,7H)-dione], for which the IC50 is 2000 to 10000 nM.
For the compound `CCCCc1cccc(Oc2nc3c(c(=O)n(C)c(=O)n3C)n2Cc2cccc(Br)c2)c1` [Compound 174, 7-(3-bromobenzyl)-8-(3-butylphenoxy)-1,3-dimethyl-1H-purine-2,6(3H,7H)-dione], the IC50 is 2000 to 10000 nM.
Then `Cc1ccc(Cn2c(Oc3cccc(OC(F)(F)F)c3)nc3c2c(=O)n(C)c(=O)n3C)cc1` [Compound 178, 1,3-dimethyl-7-(4-methylbenzyl)-8-(3-(trifluoromethoxy)phenoxy)-1H-purine-2,6(3H,7H)-dione], with 100 to 500 nM.
As to `Cn1c(=O)c2c(nc(Oc3cccc(C(F)(F)F)c3)n2Cc2cccc3ccccc23)n(C)c1=O` [Compound 179, 1,3-dimethyl-7-(naphthalen-1-ylmethyl)-8-(3-(trifluoromethyl)phenoxy)-1H-purine-2,6(3H,7H)-dione], the IC50 was 100 to 500 nM.
Then `CCc1coc(CSc2nc3c(c(=O)n(C)c(=O)n3C)n2Cc2cccc(C(C)=O)c2)n1` [Compound 180, 7-(3-acetylbenzyl)-8-((4-ethyloxazol-2-yl)methylthio)-1,3-dimethyl-1H-purine-2,6(3H,7H)-dione], with 2000 to 10000 nM.
Then `CCc1coc(CSc2nc3c(c(=O)n(C)c(=O)n3C)n2Cc2ccc(C(C)=O)cc2)n1` [Compound 181, 7-(4-acetylbenzyl)-8-((4-ethyloxazol-2-yl)methylthio)-1,3-dimethyl-1H-purine-2,6(3H,7H)-dione], with 2000 to 10000 nM; and `CN(C)Cc1cccc(Cn2c(Oc3cccc(OC(F)(F)F)c3)nc3c2c(=O)n(C)c(=O)n3C)c1` [Compound 183], with 2000 to 10000 nM.
Then `Cn1c(=O)c2c(nc(Oc3cncc(C(F)(F)F)c3)n2Cc2ccc(Cl)cc2)n(C)c1=O` [Compound 184, 7-(4-chlorobenzyl)-1,3-dimethyl-8-(5-(trifluoromethyl)pyridin-3-yloxy)-1H-purine-2,6(3H,7H)-dione], with 1000 to 2000 nM.
Regarding `Cn1c(=O)c2c(nc(Oc3cccc(C(F)(F)F)c3)n2Cc2ccc3ccccc3c2)n(C)c1=O` [Compound 185, 1,3-dimethyl-7-(naphthalen-2-ylmethyl)-8-(3-(trifluoromethyl)phenoxy)-1H-purine-2,6(3H,7H)-dione], the IC50 was 2000 to 10000 nM.
Then `CN(C)Cc1ccc(Cn2c(Oc3cccc(OC(F)(F)F)c3)nc3c2c(=O)n(C)c(=O)n3C)cc1` [Compound 186], with 2000 to 10000 nM; and `CC(c1ccc(Cl)cc1)n1c(Oc2cccc(C(F)(F)F)c2)nc2c1c(=O)n(C)c(=O)n2C` (centres unmarked) [Compound 187, 7-(1-(4-chlorophenyl)ethyl)-1,3-dimethyl-8-(3-(trifluoromethyl)phenoxy)-1H-purine-2,6(3H,7H)-dione], with 100 to 500 nM; and `COc1cccc(Cn2c(Oc3ccc(-c4ccccn4)cc3)nc3c2c(=O)n(C)c(=O)n3C)c1` [Compound 189, 7-(3-methoxybenzyl)-1,3-dimethyl-8-(4-(pyridin-2-yl)phenoxy)-1H-purine-2,6(3H,7H)-dione], with 2000 to 10000 nM.
Then `Cn1c(=O)c2c(nc(Oc3cccc(C(F)(F)F)c3)n2S(=O)(=O)c2ccc(Cl)cc2)n(C)c1=O` [Compound 190], with 2000 to 10000 nM; and `Cn1c(=O)c2c(nc(Oc3cccc(OC(F)(F)F)c3)n2Cc2ccc3ccccc3c2)n(C)c1=O` [Compound 191, 1,3-dimethyl-7-(naphthalen-2-ylmethyl)-8-(3-(trifluoromethoxy)phenoxy)-1H-purine-2,6(3H,7H)-dione], with under 100 nM.
For the compound `Cn1c(=O)c2c(nc(Sc3cccc(C(F)(F)F)c3)n2Cc2ccc(Cl)cc2)n(C)c1=O` [Compound 192, 7-(4-chlorobenzyl)-1,3-dimethyl-8-(3-(trifluoromethyl)phenylthio)-1H-purine-2,6(3H,7H)-dione], the IC50 was 100 to 500 nM.
